In patent US20080085939A1, “Use Of Sphingolipids For Prevention And Treatment Of Atherosclerosis” (priority 2004, published 2008):

Tests used:
Type in all cases: cell-based
[1] = tested on: NFAT-mediated signal transduction pathway in Jurkat cells (T-cells); experiment: PMA/ionomycin-induced stimulation of Jurkat cells, NFAT-luciferase reporter; conditions: 10 μg/mL sphingolipid; Jurkat pNFAT-luc; PMA 50 ng/ml and ionomycin 1 μg/ml, 6 hours; FIG. 2
Experimental: (§1) Jurkat cells (T-cells) stably transfected with pNFAT-luc (Clontech, BD Bioscience, Becton, Dickinson and Company, Franklin Lakes, N.J. USA) in which the hygromycin resistance gene was cloned were used. The cells produce the enzyme luciferase under control of the NFAT (nuclear Factor of Activated T cells) promoter. The NFAT-mediated pathways are stimulated in Jurkat cells by PMA and ionomycin. Cells were grown at 37° C. at 5% (v/v) CO2 and 100% relative humidity in medium consisting of RPMI 1640, 10 mM HEPES (N-[2-hydroxyethyl]piperazine-N′-[2-ethanesulfonic acid), 10% FCS, 2 mM L-Glutamine and 1 mM Sodium Pyruvate. The medium was changed every 3 days. Finally the cells were transferred to 96-wells plates.
A cell suspension of 5×10^5 cells/ml in medium without phenol red was transferred to 96 well microtiter plates (200 μL/well). In triplicate sphingolipids were added (1 or 10 μg/mL). After 30 min PMA (50 ng/ml) and ionomycin (1 μg/ml) was added and the cells were incubated during 6 hours. Then 60 μl cell suspension was mixed with 60 μl steady glo reagent (Promega). Luminescence was measured in a Wallac 1450 microbeta liquid scintillation counter.

[2] = tested on: Jurkat cells (T-cells); experiment: Cell proliferation/viability of Jurkat cells, Alamar Blue test; conditions: exposure to sphingolipids
Experimental: as §1
Because sphingolipids can be cytotoxic to cells, the viability of the cells after exposure to the sphingolipids was checked with the Alamar Blue™ (Biosource) test. Almar blue™ (20 μL) and sphingolipids were added simultaneously. The Fluorescence (excitation at 540 nm and emission at 570 nm) was measured in a Wallac 1420 Victor^2 multilabel counter (Perkin Elmer Wellesley, Mass., USA).

[3] = tested on: LPS-induced TNFα release by macrophage U937 cells; experiment: Effect of sphingolipids on LPS-induced TNFα release by macrophage U937 cells; conditions: differentiated U937 cells; 1 μg/ml or 10 μg/ml sphingolipid for 30 min, then LPS 1 μg/ml for 4 hours; FIG. 1
Experimental: Undifferentiated U937 cells were grown at 37° C. at 5% (v/v) CO2 and 100% relative humidity in medium consisting of RPMI 1640, and supplemented with 10% Fetal Calf Serum (FCS), 2 mM L-Glutamine, 50 μg/ml Gentamycin and 0.4% Fungizone. The cells were passaged every three days. Finally the cells were transferred to 96-wells microtiter plates. Differentiation was induced by addition of 10 ng/ml PMA (Phorbol 12-myristate 13-acetate). After 24 hours the medium was changed and refreshed every day and the differentiated macrophages were grown for another 3 days at 37° C. The above described differentiated U937 cells were treated for 30 min with 1 μg/ml or 10 μg/ml sphingolipid (1 mg/mL in ethanol). Then the cells were stimulated with LPS (1 μg/ml) for a period of 4 hours. The TNFα release was measured with the TNF-α cytoset™ from Biosource International, Camarillo, Calif., USA.

Structure (SMILES)	PMA/ionomycin-induced activation of the NFAT-mediated signal transduction pathway (luciferase activity) [1]	cell viability of Jurkat cells (Alamar Blue fluorescence) [2]	release of TNFα by LPS-stimulated macrophages [3]
CCCCCCCCCCCCC/C=C/[C@@H](O)[C@@H](N)CO [sphingosine]	completely suppressed	No differences	strongly reduced
CCCCCCCCCCCCCCC[C@@H](O)[C@@H](N)CO [sphinganine]	completely suppressed	No differences	strongly reduced
CCCCCCCCCCCCCC[C@@H](O)[C@@H](O)[C@@H](N)CO [phytosphingosine]	completely suppressed	No differences	strongly reduced
